Results on 18 compounds are retold here after ChEMBL document CHEMBL6177931, “Exploring diverse frontiers: Advancements of bioactive 4-aminoquinoline-based molecular hybrids in targeted therapeutics and beyond” (Eur J Med Chem, 2024).

Values after ≈ are worked out from the molar mass of the structure shown.

In general, GI50 refers to the concentration that inhibits growth by half. In general, Ki refers to a dissociation constant, usually derived from enzyme kinetics or from competition with a known ligand. What is called IC50 is the midpoint of a concentration-inhibition curve. What is called CC50 is the concentration that lowers cell viability or growth by half.

One data set relates to Candida albicans. Briefly: Antifungal activity against Candida albicans MTCC 183 by agar streak dilution method. Format: functional.
A further data set deals with Aspergillus niger. The data set can be described thus: Antifungal activity Aspergillus niger MTCC 282 by agar streak dilution method. Format: organism-based.
The test system of another data set is Z-138. Briefly: Anticancer activity against human Z138 cells assessed as cell growth inhibition incubated for 72 hrs by CellTiter96 aqueous Non-Radioactive Cell Proliferation Assay. Format: functional.
Data set [1] can be described thus: Anticancer activity against human DND41 cells assessed as cell growth inhibition incubated for 72 hrs by CellTiter96 aqueous Non-Radioactive Cell Proliferation Assay. It counts as functional.
A further data set deals with CAPAN-1. Briefly: Anticancer activity against human CAPAN-1 cells assessed as cell growth inhibition by MTS assay. It counts as functional. (In general: Tetrazolium dyes change colour on reduction, which living cells bring about.)
The test system of a further data set is NCI-H460. Briefly: Anticancer activity against human NCI-H460 cells assessed as cell growth inhibition incubated for 72 hrs by MTT assay. It counts as functional.
A further data set has as its system MCF7. The data set can be described thus: Antiproliferative activity against human MCF7 cells assessed as cell growth inhibition incubated for 72 hrs by MTT assay. Format: functional.
For another data set, the system named is K562. The data set can be described thus: Anticancer activity against human K562 cells assessed as cell growth inhibition incubated for 72 hrs by CellTiter96 aqueous Non-Radioactive Cell Proliferation Assay. It counts as functional.
The subject of another data set is HCT-116. The data set can be described thus: Anticancer activity against human HCT-116 cells assessed as cell growth inhibition incubated for 72 hrs by MTT assay. Format: functional.
The subject of data set [2] is HL-60. The data set can be described thus: Anticancer activity against human HL-60 cells assessed as cell growth inhibition incubated for 72 hrs by CellTiter96 aqueous Non-Radioactive Cell Proliferation Assay. Format: functional.
For another data set, the system named is LN-229. The data set can be described thus: Anticancer activity against human LN-229 cells assessed as cell growth inhibition by MTS assay. Format: functional.
The target of data set [3] is T1, Acetylcholinesterase (Homo sapiens, UniProt P22303). The data set can be described thus: Inhibition of recombinant human AchE by Ellman's reagent based spectrophotometric analysis. On the technique in general: Ellman's reagent forms a yellow product with free thiols.
T1 sequence (P22303 whole entry): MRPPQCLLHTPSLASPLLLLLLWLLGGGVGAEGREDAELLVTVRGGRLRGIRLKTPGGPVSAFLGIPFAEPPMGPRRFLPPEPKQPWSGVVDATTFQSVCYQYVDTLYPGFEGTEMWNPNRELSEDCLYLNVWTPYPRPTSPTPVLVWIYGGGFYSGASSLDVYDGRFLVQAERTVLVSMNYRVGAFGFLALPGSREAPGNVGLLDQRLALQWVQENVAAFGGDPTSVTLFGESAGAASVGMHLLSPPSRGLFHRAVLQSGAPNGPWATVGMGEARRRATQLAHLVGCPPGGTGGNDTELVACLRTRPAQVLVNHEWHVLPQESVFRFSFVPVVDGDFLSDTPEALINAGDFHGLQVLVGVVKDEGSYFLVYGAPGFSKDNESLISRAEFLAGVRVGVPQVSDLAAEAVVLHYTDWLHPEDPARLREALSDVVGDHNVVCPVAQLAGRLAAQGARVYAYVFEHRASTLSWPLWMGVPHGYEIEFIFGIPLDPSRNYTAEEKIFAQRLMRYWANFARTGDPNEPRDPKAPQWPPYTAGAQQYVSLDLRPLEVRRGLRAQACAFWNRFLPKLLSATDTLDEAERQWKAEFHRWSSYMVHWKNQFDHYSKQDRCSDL
For data set [4], the target named is T2, Cholinesterase (Homo sapiens, UniProt P06276). The data set can be described thus: Inhibition of human BchE by Ellman's reagent based spectrophotometric analysis.
T2 sequence (P06276 whole entry): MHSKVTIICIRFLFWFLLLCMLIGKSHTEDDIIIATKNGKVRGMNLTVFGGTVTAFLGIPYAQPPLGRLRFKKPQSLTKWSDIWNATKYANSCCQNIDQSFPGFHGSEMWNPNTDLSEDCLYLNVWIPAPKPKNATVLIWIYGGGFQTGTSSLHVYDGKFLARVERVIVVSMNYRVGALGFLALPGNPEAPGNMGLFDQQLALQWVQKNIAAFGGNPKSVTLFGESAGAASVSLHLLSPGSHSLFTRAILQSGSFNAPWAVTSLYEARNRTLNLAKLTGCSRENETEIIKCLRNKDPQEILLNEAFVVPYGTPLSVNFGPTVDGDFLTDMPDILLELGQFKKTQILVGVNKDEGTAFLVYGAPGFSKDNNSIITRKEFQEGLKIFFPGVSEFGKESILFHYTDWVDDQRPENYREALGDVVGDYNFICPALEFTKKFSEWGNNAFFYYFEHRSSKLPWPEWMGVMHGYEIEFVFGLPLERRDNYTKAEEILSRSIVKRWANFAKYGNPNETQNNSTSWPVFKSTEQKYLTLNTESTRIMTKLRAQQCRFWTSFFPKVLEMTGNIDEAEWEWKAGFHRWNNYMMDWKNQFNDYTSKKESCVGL
Data set [5] addresses Acetylcholinesterase (Electrophorus electricus, UniProt O42275). Briefly: Inhibition of electric eel AChE using […] as substrate preincubated for 10 mins followed by substrate addition and measured after 5 mins by Ellman's reagent based spectrophotometric analysis.
Data set [6] has as its target Cholinesterase (Equus caballus, UniProt P81908). Briefly: Inhibition of equine serum BChE using […] as substrate preincubated for 10 mins followed by substrate addition and measured after 5 mins by Ellman's reagent based spectrophotometric analysis.
A short description of data set [7]: Cytotoxicity against MDCK cells assessed as cell growth inhibition incubated for 72 hrs by MTT assay. Particulars: dog. Format: toxicity, cell-based, Canis lupus familiaris.
Data set [8] can be described thus: Antiproliferative activity against human Caco-2 cells assessed as cell growth inhibition incubated for 72 hrs by MTT assay. It counts as toxicity, cell-based.
Data set [9] addresses T2, Cholinesterase. Briefly: Inhibition of human BChE.
For data set [10], the target named is T1, Acetylcholinesterase. The data set can be described thus: Inhibition of human AChE.
Data set [11] can be described thus: Inhibition of ConA-induced IL-6 secretion in female BALB/c mouse splenocyte incubated for 48 hrs by ELISA. Format: functional, cell-based. For orientation: ELISA stands for enzyme-linked immunosorbent assay.
Data set [12] in a line: Inhibition of ConA-induced TNF-alpha secretion in female BALB/c mouse splenocyte incubated for 48 hrs by ELISA. It counts as functional, cell-based.
The nature of data set [13]: Inhibition of ConA-induced IL-1beta secretion in female BALB/c mouse splenocyte incubated for 48 hrs by ELISA. It counts as functional, cell-based.
The nature of data set [14]: Cytotoxicity against human Huh-7 cells assessed as reduction in cell viability incubated for 2 days by MTT assay. It counts as toxicity, cell-based. Particulars: time 2 day.
Data set [15] concerns HL-60. The data set can be described thus: Cytotoxicity against human HL-60 cells assessed as reduction in cell viability incubated for 24 hrs by MTT assay. It counts as functional, cell-based. Particulars: HL-60, 24 h.
A further data set deals with Jurkat E6.1. The data set can be described thus: Cytotoxicity against human Jurkat E6.1 cells assessed as reduction in cell viability incubated for 24 hrs by MTT assay. It counts as functional, cell-based. Particulars: Jurkat E6.1, 24 h.
Data set [16] in a line: Cytotoxicity against human A375P cells assessed as cell viability incubated for 72 hrs by alamar blue reagent based assay. It counts as functional.
The next data set concerns Escherichia coli. Briefly: Antibacterial activity against Escherichia coli MTCC 739 by agar streak dilution method. Format: functional.
For another data set, the system named is Bacillus subtilis. Briefly: Antibacterial activity against Bacillus subtilis MTCC 619 by agar streak dilution method. Format: functional.
The next data set concerns Pseudomonas aeruginosa. The data set can be described thus: Antibacterial activity against Pseudomonas aeruginosa MTCC 741 by agar streak dilution method. It counts as functional.
Another data set deals with Staphylococcus aureus. The data set can be described thus: Antibacterial activity against Staphylococcus aureus MTCC 96 by agar streak dilution method. It counts as functional.
Data set [17] concerns the target T1, Acetylcholinesterase. Briefly: Inhibition of human erythrocyte AChE using acetylthiocholine as substrate preincubated for 5 mins followed by substrate addition by Ellman's reagent based spectrophotometric analysis.

Sequence of Cholinesterase (Equus caballus, UniProt P81908) (P81908 whole entry): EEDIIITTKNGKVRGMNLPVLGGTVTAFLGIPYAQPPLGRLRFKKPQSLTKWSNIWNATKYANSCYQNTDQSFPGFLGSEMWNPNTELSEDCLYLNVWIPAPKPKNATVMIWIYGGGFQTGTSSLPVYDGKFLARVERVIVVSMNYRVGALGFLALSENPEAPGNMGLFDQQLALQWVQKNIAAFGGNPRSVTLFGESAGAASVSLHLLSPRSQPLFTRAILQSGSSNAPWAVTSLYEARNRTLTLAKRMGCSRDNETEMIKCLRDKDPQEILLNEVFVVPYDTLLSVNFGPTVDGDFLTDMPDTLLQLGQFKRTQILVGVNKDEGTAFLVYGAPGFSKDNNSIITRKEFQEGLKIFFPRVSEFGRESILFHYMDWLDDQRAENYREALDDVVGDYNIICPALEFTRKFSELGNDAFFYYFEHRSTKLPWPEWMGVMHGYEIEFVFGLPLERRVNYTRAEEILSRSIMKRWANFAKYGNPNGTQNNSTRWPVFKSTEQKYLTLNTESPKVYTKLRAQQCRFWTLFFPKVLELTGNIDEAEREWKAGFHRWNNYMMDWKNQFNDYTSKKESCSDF
Sequence of Acetylcholinesterase (Electrophorus electricus, UniProt O42275) (O42275 whole entry): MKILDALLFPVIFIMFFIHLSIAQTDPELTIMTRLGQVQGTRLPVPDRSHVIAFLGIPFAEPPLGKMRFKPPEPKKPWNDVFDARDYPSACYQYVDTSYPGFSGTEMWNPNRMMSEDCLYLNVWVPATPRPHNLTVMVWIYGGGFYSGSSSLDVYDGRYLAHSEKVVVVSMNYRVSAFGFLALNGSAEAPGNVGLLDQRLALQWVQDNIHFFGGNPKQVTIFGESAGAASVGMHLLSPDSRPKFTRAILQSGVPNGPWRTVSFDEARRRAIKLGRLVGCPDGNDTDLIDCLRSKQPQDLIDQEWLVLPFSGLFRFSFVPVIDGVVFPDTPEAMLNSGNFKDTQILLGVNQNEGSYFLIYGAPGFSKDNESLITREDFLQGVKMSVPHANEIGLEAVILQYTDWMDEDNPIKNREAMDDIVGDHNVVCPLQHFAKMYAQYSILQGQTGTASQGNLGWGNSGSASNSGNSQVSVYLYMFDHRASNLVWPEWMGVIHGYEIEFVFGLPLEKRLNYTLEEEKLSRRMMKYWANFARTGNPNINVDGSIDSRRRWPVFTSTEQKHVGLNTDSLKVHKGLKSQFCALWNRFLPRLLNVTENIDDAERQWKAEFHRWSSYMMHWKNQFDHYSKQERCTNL

`CCCCCOc1ccc(/C=N/Nc2cc(C)nc3ccc(Cl)cc23)cc1`: the MIC in the data set with Candida albicans was determined as 25 µg/mL (≈ 65.5 µM); against Aspergillus niger, 12.5 µg/mL (≈ 32.7 µM).

On to `C=C(CC(=O)OC)C(=O)NCCCCNc1ccnc2cc(Cl)ccc12`, for which the concentration for 50% growth inhibition (GI50) in the data set on Z-138 worked out at 1.9 µM; in data set [1] it was 3.1 µM; in the data set on CAPAN-1, 1.3 µM; with NCI-H460 it was 2 µM; in the data set with MCF7, 0.8 µM; in the data set with K562 it was 8.1 µM. The GI50 turned out to be 2 µM with HCT-116, 1.9 µM in the data set on HL-60 [2] and 1.1 µM with LN-229.

`Clc1ccc2c(NCCCCCCCCNC34CC5CC(CC(C5)C3)C4)ccnc2c1`: the inhibition constant (Ki) at Acetylcholinesterase [3] stood at 0.075 µM; on Cholinesterase [4] it was 0.091 µM.

`Oc1ccccc1/C=N/CCCCCCNc1ccnc2cc(Cl)ccc12`: the IC50 against Acetylcholinesterase [5] is 0.73 µM; against Cholinesterase [6] it was 58.4 µM.

For the compound `Clc1ccc2c(NCCNC34CC5CC(CC(C5)C3)C4)ccnc2c1`, the inhibition constant Ki on Acetylcholinesterase [3] was 1.6 µM; at Cholinesterase [4], 0.92 µM.

In the case of `Clc1ccc2c(Nc3cccc(-c4nc5ccccc5[nH]4)c3)ccnc2c1`, the IC50 at 72 h in [7] was 20.4 µM. Besides, the concentration for 50% growth inhibition (GI50) at 72 h in [8] is 1 µM.

With `S=C(NCCCCNc1c2c(nc3ccccc13)CCCC2)NCCc1c[nH]c2ccccc12`, the IC50 against Cholinesterase [9] amounted to 0.076 µM; against Acetylcholinesterase [10], 0.025 µM.

For the compound `CCN(CCO)CCCC(C)Nc1ccnc2cc(Cl)ccc12` (centres undefined) [HYDROXYCHLOROQUINE], the IC50 in data set [11] worked out at 16.5 µM; in [12], 10 µM; in [13], 3.51 µM.

For `CCN(CCCC(C)Nc1ccnc2cc(Cl)ccc12)CCNC(=O)C(F)(F)C1CCN(C(=O)C2OC(OC)C3OC(C)(C)OC23)CC1` (centres undefined), the half-maximal cytotoxic concentration (CC50) at 48 h in data set [14] came out at 16.9 µM. Further, the IC50 in [11] stood at 1.87 µM; in [12] it was 4.41 µM; in data set [13], 1.19 µM.

In the case of `COc1ccc(C2CC(c3cccc(Nc4ccnc5cc(Cl)ccc45)c3)=NN2)cc1OC` (centres undefined), the IC50 in the data set with HL-60 [15] was 0.94 µM; in the data set on Jurkat E6.1, 3.17 µM.

Turning to `O=C(NCCNc1ccnc2cc(Cl)ccc12)c1ccc(-c2nc3ccccc3[nH]2)cc1`, in [7], the IC50 at 72 h worked out at 100 µM. Also, the GI50 at 72 h in [8] worked out at 16.4 µM.

As to `CN(CCCCN(C)CCCNc1ccnc2cc(Cl)ccc12)CCCNc1ccnc2cc(Cl)ccc12`, in data set [16], the IC50 was 0.269 µM.

In the case of `CCN(CCCC(C)Nc1ccnc2cc(Cl)ccc12)CCNC(=O)C(F)(F)C1CCN(CC(O)C(F)(F)F)CC1` (centres undefined), in [14], the cytotoxic concentration (CC50) at 48 h was found to be 16.7 µM. Also, the IC50 was determined as 1.6 µM in [11], 15.9 µM in data set [12] and 0.72 µM in [13].

Turning to `CCCCCCOc1ccc(/C=N/Nc2cc(C)nc3ccc(Cl)cc23)cc1`, the MIC is 6.5 µg/mL (≈ 16.4 µM) in the data set on Escherichia coli, 12.5 µg/mL (≈ 31.6 µM) against Bacillus subtilis, 12.5 µg/mL (≈ 31.6 µM) against Pseudomonas aeruginosa and 12.5 µg/mL (≈ 31.6 µM) against Staphylococcus aureus.

For the compound `COc1ccc(/C=C/C(=O)c2ccc(Nc3ccnc4cc(Cl)ccc34)cc2)c(OC)c1`, the IC50 in the data set on HL-60 [15] came to 13.5 µM; in the data set on Jurkat E6.1, 10.4 µM.

With `Cc1ccc(CNCCCCCCNc2ccnc3cc(Cl)ccc23)c(O)c1`, the 50% inhibitory concentration (IC50) at Acetylcholinesterase [5] worked out at 0.26 µM; at Cholinesterase [6], 1.58 µM.

Turning to `CCCOc1ccc(/C=N/Nc2cc(C)nc3ccc(Cl)cc23)cc1`, the MIC against Candida albicans is 12.5 µg/mL (≈ 35.3 µM); against Aspergillus niger, 25 µg/mL (≈ 70.7 µM).

As to `CC(C)(C)c1ccc(CNCCNc2c3c(nc4ccccc24)CCCCC3)c(C(C)(C)C)c1O`, the IC50 on Acetylcholinesterase [17] was 1.9 µM; on Cholinesterase [9] it was 0.084 µM.
